From patent US8637531B2, “Pyrido(3,2-d)pyridmidines useful for treating viral infections” (Gilead Sciences, Inc., priority 2006, dated 2014)

Assays:
[1] = CC50 assay in Huh-7 HCV replicon cells (CellTiter-Glo); format: cell-based; conditions: human, 3 days incubation, CellTiter-Glo luminescence
Description: (§1) The anti-HCV activity of the pyrido[3,2-d]pyrimidine derivatives of this invention was tested in a human hepatoma Huh-7 cell line harbouring a HCV replicon. The assay comprised the following steps:
(§2) Step 1: Compound Preparation and Serial Dilution
(§3) • 1. for water soluble pyrido[3,2-d]pyrimidine derivatives, a volume of 500 μL of solution in cell media (DMEM, 10% FBS, P/S, L-Glutamine) was prepared with a concentration being twice the concentration of the starting final serial dilution concentration. A volume of 150 μL of the solution was added to the pre-specified wells in column 1 of a 96-well cell culture plate (PerkinElmer, white plate, cat. #6005181, for EC50 assay; black plate, cat. #6005182 for CC50 assay). The rest of the plate, columns 2-12, was filled with 100 μL of cell media. The plate was then placed on a Precision 2000 Workstation to start the serial dilution. Compounds were diluted three times each step from column 1 to column 10. Column 11 was used as a blank control (no compound added). • 2. for pyrido[3,2-d]pyrimidine derivatives requiring DMSO to dissolve, serial dilution is performed in 50% DMSO in a 384-well plate. A solution containing a compound at 100-fold concentration of the starting final serial dilution concentration was prepared in 50% DMSO and added to the pre-specified wells in column 1 of a polypropylene 384-well plate. The plate was then placed on a Precision 2000 Workstation to start the serial dilution. After the serial dilution, a volume of 2 μL of the solution was transferred from the 384-well plate to a 96-well cell culture plate containing 100 μL of cell media on a Biomek FX Workstation. The DMSO concentration in the final assay condition was 0.5% after cells are added to the plate and the total volume in each well is brought to 200 μL. Step 2: to each well of the serial dilution plate prepared above, 100 μL of cell media containing 6000 suspended Huh-7 HCV replicon cells was added with a Multidrop workstation. The plates were incubated for 3 days at 37° C. with 5% CO2. Step 3: Detection: • a) for the EC50 assay, the media in a 96-well cell culture plate was aspirated with a Biotek EL405 plate-washer. A volume of 200 μL of a solution containing a 1:1 mixture of cell-lysis buffer (Promega, Luciferase Cell Culture Lysis 5× Reagent, cat. #E1531) and luciferase substrate solution (Promega, Luciferase Assay, cat. # E4550) was added to each well of the plate with Multidrop. The plate was incubated for 30 minutes at room temperature before the luminescence signal was measured with a TopCount plate-reader. • b) for the CC50 assay, a volume of 100 μL of pre-mixed CellTiter-Glo (Promega, cat. # G7572) solution is added directly to the cell culture in each well of the plate and the luminescence signal is measured with a TopCount plate-reader after 10 minutes of incubation at room temperature.
the 50% cytostatic concentration (CC50), i.e. the concentration that results in 50% inhibition of cell growth.

[2] = tested on: HCV replicon; experiment: Anti-HCV replicon assay (EC50, luciferase); format: cell-based; conditions: Hepatitis C virus, 72 h; human hepatoma Huh-7 cell line harbouring a HCV replicon, 3 days incubation, luciferase luminescence
Description: as §1, §2, §3
Results in table 13 are expressed by the following data: • the 50% effective concentration (EC50), i.e. the concentration that protects 50% of the cell monolayer from virus-induced cytopathic effect, and […]

| Compound | CC50 at 3 days [1] [nM] | EC50 [2] [nM] | melting point [°C] |
| --- | --- | --- | --- |
| Nc1nc(OC2CCOCC2)c2nc(-c3ccc(F)cc3)ccc2n1 [Example 33, 2-amino-4-(tetrahydro-2H-pyran-4-oxy)-6-(4-fluorophenyl)-pyrido(3,2-d)pyrimidine] | 10000 to 20000 | < 300 | – |
| Nc1nc(OC2CCCC2)c2nc(-c3ccc(F)cc3)ccc2n1 [Example 11, 2-amino-4-(cyclopentoxy)-6-(4-fluorophenyl)pyrido(3,2-d)pyrimidine] | > 20000 | < 300 | – |
| CC#CCCOc1nc(N)nc2ccc(-c3ccc(F)cc3)nc12 [Example 14, 2-amino-4-(3-pentyn-1-oxy)-6-(4-fluorophenyl)pyrido(3,2-d)pyrimidine] | > 20000 | > 1000 | – |
| CCCOCCOc1nc(N)nc2ccc(-c3ccc(F)cc3)nc12 [Example 3, 2-amino-4-(2-propoxyethoxy)-6-(4-fluorophenyl)pyrido(3,2-d)pyrimidine] | > 20000 | 300 to 1000 | – |
| Nc1nc(OC2CCC2)c2nc(-c3ccc(F)cc3)ccc2n1 [Example 9, 2-amino-4-(cyclobutoxy)-6-(4-fluorophenyl)pyrido(3,2-d)pyrimidine] | > 20000 | < 300 | – |
| Nc1nc(OCC2CC2)c2nc(-c3ccc(F)cc3)ccc2n1 [Example 22, 4-cyclopropylmethoxy-6-(4-fluoro-phenyl)-pyrido[3,2-d]pyrimidin-2-ylamine] | > 20000 | < 300 | – |
| CCOCCOc1nc(N)nc2ccc(-c3ccc(F)cc3)nc12 [Example 24, 4-(2-ethoxy-ethoxy)-6-(4-fluoro-phenyl)-pyrido[3,2-d]pyrimidin-2-ylamine] | > 20000 | < 300 | – |
| Nc1nc(O[C@H]2CCOC2)c2nc(-c3ccc(F)cc3)ccc2n1 [Example 16, 2-amino-4-[3(S)-tetrahydrofuranyloxy]-6-(4-fluorophenyl)-pyrido(3,2-d)pyrimidine] | > 20000 | < 300 | – |
| Nc1nc(O[C@@H]2CCOC2)c2nc(-c3ccc(F)cc3)ccc2n1 [Example 17, 2-amino-4-[3(R)-tetrahydrofuranyloxy]-6-(4-fluorophenyl)-pyrido(3,2-d) pyrimidine] | > 20000 | < 300 | – |
| CCCCOCCOc1nc(N)nc2ccc(-c3ccc(F)cc3)nc12 [Example 4, 2-amino-4-(2-butoxyethoxy)-6-(4-fluorophenyl)pyrido(3,2-d)pyrimidine] | > 20000 | > 1000 | – |
| Nc1nc(OCC2CCCCO2)c2nc(-c3ccc(F)cc3)ccc2n1 (stereo not drawn) [Example 34, 2-amino-4-(tetrahydropyran-2-methoxy)-6-(4-fluorophenyl)-pyrido(3,2-d)pyrimidine] | 10000 to 20000 | 300 to 1000 | 202 |
| CC(C)OCCOc1nc(N)nc2ccc(-c3ccc(F)cc3)nc12 [Example 6, 2-amino-4-(2-isopropoxyethoxy)-6-(4-fluorophenyl)pyrido(3,2-d)pyrimidine] | > 20000 | < 300 | – |
| CCOC(C)COc1nc(N)nc2ccc(-c3ccc(F)cc3)nc12 (stereo not drawn) [Example 5, 2-amino-4-(2-ethoxy-1-propoxy)-6-(4-fluorophenyl)pyrido(3,2-d)pyri-midine] | > 20000 | < 300 | – |
| Nc1nc(OC2CCCCC2)c2nc(-c3ccc(F)cc3)ccc2n1 [Example 32, 2-amino-4-cyclohexyloxy-6-(4-fluorophenyl)-pyrido(3,2-d)pyrimidine] | < 10000 | 300 to 1000 | 180 |
| CS(=O)(=O)CCOc1nc(N)nc2ccc(-c3ccc(F)cc3)nc12 [Example 19, 2-amino-4-[2-(methylsulfonyl)ethoxy]-6-(4-fluorophenyl)-pyrido(3,2-d) pyrimidine] | > 20000 | < 300 | – |
| Nc1nc(OCC2CCOC2)c2nc(-c3ccc(F)cc3)ccc2n1 (stereo not drawn) [Example 36, 2-amino-4-(tetrahydro-3-furanmethoxy)-6-(4-fluorophenyl)-pyrido(3,2-d)pyrimidine] | 10000 to 20000 | < 300 | 219 |
| COCCOc1nc(N)nc2ccc(-c3ccc(F)cc3)nc12 [Example 23, 6-(4-fluoro-phenyl)-4-(2-methoxy-ethoxy)-pyrido[3,2-d]pyrimidin-2-ylamine] | > 20000 | < 300 | – |
| Nc1nc(OCCN2CCOCC2)c2nc(-c3ccc(F)cc3)ccc2n1 [Example 21, 6-(4-fluoro-phenyl)-4-(2-morpholin-4-yl-ethoxy)-pyrido[3,2-d]pyrimidin-2-ylamine] | > 20000 | 300 to 1000 | – |
| CCC(CC)Oc1nc(N)nc2ccc(-c3ccc(F)cc3)nc12 [Example 20, 4-(1-ethyl-propoxy)-6-(4-fluoro-phenyl)-pyrido[3,2-d]pyrimidin-2-ylamine] | < 10000 | < 300 | – |
| C=CC(C)(C)Oc1nc(N)nc2ccc(-c3ccc(F)cc3)nc12 [Example 13, 2-amino-4-(2-methyl-3-buten-2-oxy)-6-(4-fluorophenyl)pyrido(3,2-d)pyrimidine] | > 20000 | > 1000 | – |
| Nc1nc(OC2CO[C@H]3OCC[C@@H]23)c2nc(-c3ccc(F)cc3)ccc2n1 (stereo partly drawn) [Example 18, 2-amino-4-[hexahydro-furo(2,3-b)furan-3-oxy]-6-(4-fluorophenyl)-pyrido(3,2-d) pyrimidine] | > 20000 | < 300 | – |
| Nc1nc(OCC(F)F)c2nc(-c3ccc(F)cc3)ccc2n1 [Example 7, 2-amino-4-(2,2-difluoroethoxy)-6-(4-fluorophenyl)pyrido(3,2-d)pyrimidine] | > 20000 | < 300 | – |
| COC[C@H](C)Oc1nc(N)nc2ccc(-c3ccc(F)cc3)nc12 [Example 37, 2-amino-4-[(S)-1-methoxy-2-propoxy]-6-(4-fluorophenyl)-pyrido(3,2-d)pyrimidine] | > 20000 | < 300 | – |
| Nc1nc(OCC2CCCC2)c2nc(-c3ccc(F)cc3)ccc2n1 [Example 10, 2-amino-4-(cyclopentylmethoxy)-6-(4-fluorophenyl)pyrido(3,2-d)pyrimidine] | > 20000 | 300 to 1000 | – |
| CSCCOc1nc(N)nc2ccc(-c3ccc(F)cc3)nc12 [Example 8, 2-amino-4-[2-(methylthio)ethoxy]-6-(4-fluorophenyl)pyrido(3,2-d)pyrimidine] | > 20000 | < 300 | – |
| COC[C@@H](C)Oc1nc(N)nc2ccc(-c3ccc(F)cc3)nc12 [Example 38, 2-amino-4-[(R)-1-methoxy-2-propoxy]-6-(4-fluorophenyl)-pyrido(3,2-d)pyrimidine] | 10000 to 20000 | < 300 | – |
| Nc1nc(OCC2CCCO2)c2nc(-c3ccc(F)cc3)ccc2n1 (stereo not drawn) [Example 35, 2-amino-4-(tetrahydro-2-furanmethoxy)-6-(4-fluorophenyl)-pyrido(3,2-d)pyrimidine] | 10000 to 20000 | 300 to 1000 | 193 |
| COC(C)(C)CCOc1nc(N)nc2ccc(-c3ccc(F)cc3)nc12 [Example 12, 2-amino-4-(3-methyl-3-methoxybutoxy)-6-(4-fluorophenyl)pyrido(3,2-d) pyrimidine] | > 20000 | < 300 | – |
